Reference: patent US20180148418A1, “AMIDO-SUBSTITUTED CYCLOHEXANE DERIVATIVES” (Bayer Pharma Aktiengesellschaft, priority 2015, published 2018)

Columns and labels:
[1] = test system: HEK293 cells cotransfected with the FOP control vector; assay: HEK293 FOP assay (control reporter with non-functional TCF elements); assay type: cell-based; conditions: Homo sapiens, 16 hours
Procedure, shortened: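 Compound series from 50 μM down to 15 nM, prediluted in DMSO then 50-fold into CAFTY buffer (pH 7.4, 2 mM Ca2+, 0.01% BSA), tested alongside TOP cells on a Geneticin-selected HEK293 FOP line whose TCF elements are replaced by a random sequence; recombinant human Wnt-3a applied at 2500-5 ng/ml.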

TNKS2 = target: T1, TNKS2 (Homo sapiens, UniProt Q9H2K2); assay: TNKS2 Assay B (auto-parsylation, [3H]-NAD+ SPA); assay type: biochemical; conditions: 6 nM TNKS2, auto-parsylation, over night at room temperature
T1 construct: purchased BPS Bioscience, San Diego, USA 80572 (TNKS2 Histone Ribosylation Assay Kit)
T1 sequence (Q9H2K2 1-1166): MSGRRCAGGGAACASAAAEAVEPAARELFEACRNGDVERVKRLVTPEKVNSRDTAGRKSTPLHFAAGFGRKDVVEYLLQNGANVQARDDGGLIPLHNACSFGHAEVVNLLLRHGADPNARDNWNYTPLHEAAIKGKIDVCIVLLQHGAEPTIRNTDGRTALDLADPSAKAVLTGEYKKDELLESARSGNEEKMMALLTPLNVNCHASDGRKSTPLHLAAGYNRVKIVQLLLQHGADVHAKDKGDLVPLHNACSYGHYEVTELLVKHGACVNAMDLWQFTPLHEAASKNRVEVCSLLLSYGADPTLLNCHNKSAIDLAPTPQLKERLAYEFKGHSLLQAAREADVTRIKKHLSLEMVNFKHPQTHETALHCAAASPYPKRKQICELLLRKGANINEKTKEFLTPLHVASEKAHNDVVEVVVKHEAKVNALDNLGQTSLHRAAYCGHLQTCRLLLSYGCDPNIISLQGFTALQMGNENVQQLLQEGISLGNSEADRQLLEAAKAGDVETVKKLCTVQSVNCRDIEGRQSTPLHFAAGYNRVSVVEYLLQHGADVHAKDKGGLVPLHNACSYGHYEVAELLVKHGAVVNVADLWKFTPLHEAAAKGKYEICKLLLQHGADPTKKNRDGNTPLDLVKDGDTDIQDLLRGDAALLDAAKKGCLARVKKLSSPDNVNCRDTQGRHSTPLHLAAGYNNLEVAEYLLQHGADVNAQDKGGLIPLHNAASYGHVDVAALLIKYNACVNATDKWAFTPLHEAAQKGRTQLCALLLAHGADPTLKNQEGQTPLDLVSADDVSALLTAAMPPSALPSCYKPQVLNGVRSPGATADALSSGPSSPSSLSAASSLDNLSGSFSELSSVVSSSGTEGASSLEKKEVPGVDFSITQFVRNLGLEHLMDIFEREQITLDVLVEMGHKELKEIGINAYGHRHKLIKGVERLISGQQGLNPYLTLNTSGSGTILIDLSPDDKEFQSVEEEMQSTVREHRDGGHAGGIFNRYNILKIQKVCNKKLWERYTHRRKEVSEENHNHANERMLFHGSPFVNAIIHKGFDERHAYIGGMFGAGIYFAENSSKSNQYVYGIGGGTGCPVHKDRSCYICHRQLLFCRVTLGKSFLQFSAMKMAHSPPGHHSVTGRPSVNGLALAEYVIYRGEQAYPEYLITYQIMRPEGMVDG

| SMILES | IC50 [1] | IC50 (TNKS2) |
| --- | --- | --- |
| O=C(N[C@H]1CC[C@H](C(=O)Nc2ccc(F)cc2Cl)CC1)c1cnc2ccc(Cl)nn12 [Example 47, 6-chloro-N-{trans-4-[(2-chloro-4-fluorophenyl)carbamoyl]cyclohexyl}imidazo[1,2-b]pyridazine-3-carboxamide] | 16000 nM | 420 nM |
| O=C(N[C@H]1CC[C@H](C(=O)Nc2ccc(F)cc2Cl)CC1)c1cnc2ccc(N3CCOCC3)nn12 [Example 48, N-{trans-4-[(2-chloro-4-fluorophenyl)carbamoyl]cyclohexyl}-6-(morpholin-4-yl)imidazo[1,2-b]pyridazine-3-carboxamide] | 14000 nM | 310 nM |
| CN1CCN(c2ccc3ncc(C(=O)N[C@H]4CC[C@H](C(=O)Nc5ccc(F)cc5Cl)CC4)n3n2)CC1 [Example 49, N-{trans-4-[(2-chloro-4-fluorophenyl)carbamoyl]cyclohexyl}-6-(4-methylpiperazin-1-yl)imidazo[1,2-b]pyridazine-3-carboxamide] | 32000 nM | 130 nM |
| COc1ccc2ncc(C(=O)N[C@H]3CC[C@H](C(=O)Nc4ccc(F)cc4Cl)CC3)n2n1 [Example 50, N-{trans-4-[(2-chloro-4-fluorophenyl)carbamoyl]cyclohexyl}-6-methoxyimidazo[1,2-b]pyridazine-3-carboxamide] | ≥ 50000 nM | 170 nM |
| O=C(N[C@H]1CC[C@H](C(=O)Nc2ccc(F)cc2Cl)CC1)c1cnc2ccc(N3CCCC3)nn12 [Example 51, N-{trans-4-[(2-chloro-4-fluorophenyl)carbamoyl]cyclohexyl}-6-(pyrrolidin-1-yl)imidazo[1,2-b]pyridazine-3-carboxamide] | ≥ 50000 nM | 31 nM |
| CN(C)c1ccc2ncc(C(=O)N[C@H]3CC[C@H](C(=O)Nc4ccc(F)cc4Cl)CC3)n2n1 [Example 52, N-{trans-4-[(2-chloro-4-fluorophenyl)carbamoyl]cyclohexyl}-6-(dimethylamino)imidazo[1,2-b]pyridazine-3-carboxamide] | 40000 nM | 11 nM |
| CNc1ccc2ncc(C(=O)N[C@H]3CC[C@H](C(=O)Nc4ccc(F)cc4Cl)CC3)n2n1 [Example 53, N-{trans-4-[(2-chloro-4-fluorophenyl)carbamoyl]cyclohexyl}-6-(methylamino)imidazo[1,2-b]pyridazine-3-carboxamide] | ≥ 50000 nM | 47 nM |
| Cc1c(C(C)O)cnc2c(C(=O)N[C@H]3CC[C@H](C(=O)Nc4ccc(F)cc4Cl)CC3)cnn12 (stereo partly drawn) [Example 58, N-{trans-4-[(2-chloro-4-fluorophenyl)carbamoyl]cyclohexyl}-6-(1-hydroxyethyl)-7-methylpyrazolo[1,5-a]pyrimidine-3-carboxamide] | ≥ 50000 nM | 710 nM |
| Nc1nn2cccnc2c1C(=O)N[C@H]1CC[C@H](C(=O)Nc2ccc(F)cc2Cl)CC1 [Example 59, 2-amino-N-{trans-4-[(2-chloro-4-fluorophenyl)carbamoyl]cyclohexyl}pyrazolo[1,5-a]pyrimidine-3-carboxamide] | ≥ 50000 nM | 500 nM |
| Cc1cc(C(C)(C)C)n2ncc(C(=O)N[C@H]3CC[C@H](C(=O)Nc4ccc(F)cc4Cl)CC3)c2n1 [Example 60, 7-tert-butyl-N-{trans-4-[(2-chloro-4-fluorophenyl)carbamoyl]cyclohexyl}-5-methylpyrazolo[1,5-a]pyrimidine-3-carboxamide] | 24000 nM | 2200 nM |
| Cc1cnc2c(C(=O)N[C@H]3CC[C@H](C(=O)Nc4ccc(F)cc4Cl)CC3)cnn2c1 [Example 61, N-{trans-4-[(2-chloro-4-fluorophenyl)carbamoyl]cyclohexyl}-6-methylpyrazolo[1,5-a]pyrimidine-3-carboxamide] | ≥ 50000 nM | 34 nM |
| Cc1cc(C2CC2)nc2c(C(=O)N[C@H]3CC[C@H](C(=O)Nc4ccc(F)cc4Cl)CC3)cnn12 [Example 62, N-{trans-4-[(2-chloro-4-fluorophenyl)carbamoyl]cyclohexyl}-5-cyclopropyl-7-methylpyrazolo[1,5-a]pyrimidine-3-carboxamide] | ≥ 50000 nM | 2000 nM |
| CNC(=O)c1nc[nH]c1C(=O)N[C@H]1CC[C@H](C(=O)Nc2cc(C)c(F)cc2Cl)CC1 [Example 63, N^5-{trans-4-[(2-chloro-4-fluoro-5-methylphenyl)carbamoyl]cyclohexyl}-N^4-methyl-1H-imidazole-4,5-dicarboxamide] | ≥ 50000 nM | 31 nM |
| Cc1cc(NC(=O)[C@H]2CC[C@H](NC(=O)c3[nH]cnc3C(=O)NCC3CCCO3)CC2)c(Cl)cc1F (stereo partly drawn) [Example 64, N^5-{trans-4-[(2-chloro-4-fluoro-5-methylphenyl)carbamoyl]cyclohexyl}-N^4-(tetrahydrofuran-2-ylmethyl)-1H-imidazole-4,5-dicarboxamide] | 27000 nM | 49 nM |
| COCC(C)NC(=O)c1nc[nH]c1C(=O)N[C@H]1CC[C@H](C(=O)Nc2c(F)cc(F)cc2Cl)CC1 (stereo partly drawn) [Example 65, N^5-{trans-4-[(2-chloro-4,6-difluorophenyl)carbamoyl]cyclohexyl}-N^4-(1-methoxypropan-2-yl)-1H-imidazole-4,5-dicarboxamide] | ≥ 50000 nM | 190 nM |
| COC[C@H](C)NC(=O)c1nc[nH]c1C(=O)N[C@H]1CC[C@H](C(=O)Nc2c(F)cc(F)cc2Cl)CC1 [Example 66, N^5-{trans-4-[(2-chloro-4,6-difluorophenyl)carbamoyl]cyclohexyl}-N^4-[(2S)-1-methoxypropan-2-yl]-1H-imidazole-4,5-dicarboxamide] | ≥ 50000 nM | 280 nM |
| COC[C@@H](C)NC(=O)c1nc[nH]c1C(=O)N[C@H]1CC[C@H](C(=O)Nc2c(F)cc(F)cc2Cl)CC1 [Example 67, N^5-{trans-4-[(2-chloro-4,6-difluorophenyl)carbamoyl]cyclohexyl}-N^4-[(2R)-1-methoxypropan-2-yl]-1H-imidazole-4,5-dicarboxamide] | ≥ 50000 nM | 280 nM |
| COC(C)CNC(=O)c1nc[nH]c1C(=O)N[C@H]1CC[C@H](C(=O)Nc2c(F)cc(F)cc2Cl)CC1 (stereo partly drawn) [Example 68, N^5-{trans-4-[(2-chloro-4,6-difluorophenyl)carbamoyl]cyclohexyl}-N^4-(2-methoxypropyl)-1H-imidazole-4,5-dicarboxamide] | 33000 nM | 79 nM |
| O=C(NCC1CCCO1)c1nc[nH]c1C(=O)N[C@H]1CC[C@H](C(=O)Nc2c(F)cc(F)cc2Cl)CC1 (stereo partly drawn) [Example 69, N^5-{trans-4-[(2-chloro-4,6-difluorophenyl)carbamoyl]cyclohexyl}-N^4-(tetrahydrofuran-2-ylmethyl)-1H-imidazole-4,5-dicarboxamide] | ≥ 50000 nM | 57 nM |
| O=C(NC[C@H]1CCCO1)c1nc[nH]c1C(=O)N[C@H]1CC[C@H](C(=O)Nc2c(F)cc(F)cc2Cl)CC1 [Example 70, N^5-{trans-4-[(2-chloro-4,6-difluorophenyl)carbamoyl]cyclohexyl}-N^4-[(2R)-tetrahydrofuran-2-ylmethyl]-1H-imidazole-4,5-dicarboxamide] | 29000 nM | 76 nM |
| O=C(N[C@H]1CC[C@H](C(=O)Nc2ccc(F)cc2Cl)CC1)c1[nH]cnc1C(=O)N1CC(F)(F)C1 [Example 72, N-{trans-4-[(2-chloro-4-fluorophenyl)carbamoyl]cyclohexyl}-4-[(3,3-difluoroazetidin-1-yl)carbonyl]-1H-imidazole-5-carboxamide] | ≥ 50000 nM | 26 nM |
| COC(C)(C)CNC(=O)c1nc[nH]c1C(=O)N[C@H]1CC[C@H](C(=O)Nc2ccc(F)cc2Cl)CC1 [Example 73, N^5-{trans-4-[(2-chloro-4-fluorophenyl)carbamoyl]cyclohexyl}-N^4-(2-methoxy-2-methylpropyl)-1H-imidazole-4,5-dicarboxamide] | 19000 nM | 190 nM |
| O=C(NCCC1CC1)c1nc[nH]c1C(=O)N[C@H]1CC[C@H](C(=O)Nc2ccc(F)cc2Cl)CC1 [Example 74, N^5-{trans-4-[(2-chloro-4-fluorophenyl)carbamoyl]cyclohexyl}-N^4-(2-cyclopropylethyl)-1H-imidazole-4,5-dicarboxamide] | 32000 nM | 73 nM |
